Results published in article PMC6201879, “N-substituted phenylbenzamides of the niclosamide chemotype attenuate obesity related changes in high fat diet fed mice” (PLoS ONE, 2018).
Where two headings read alike, the source gives them in different places.

Tests used:
[1] = tested on: Escherichia coli WP2 uvrA (pKM101)
[2] = tested on: Salmonella typhimurium TA1537
[3] = tested on: Salmonella typhimurium TA1535
[4] = tested on: HEK293 cells stably transduced with the human OCT3 transporter; assay: Cellular oxygen consumption rate (OCR), MitoXpress Xtra; assay type: cell-based; conditions: HEK293 cells expressing human OCT3
Protocol: Oxygen consumption rate experiments were performed by ZenBio, Inc (RTP, NC). HEK293 cells stably transduced with the human OCT3 transporter were plated in black-walled microclear plates (Greiner-BioOne) at 60,000 cells per well in growth medium. Cells were incubated overnight to allow attachment before growth medium was removed and replaced with 150μL of assay medium containing compound dilutions. Four concentrations of each compound were prepared and transferred to the empty wells. Control wells contained assay medium only or assay medium containing […] (FCCP) at 1μM. Ten μL of MitoXpress Xtra reagent was added to each test well and 100μL of pre-warmed mineral oil was overlaid in each well to create a seal. The plates were immediately read on a FLUOstar Omega (BMG) using dual read Time Resolved Fluorescence (TR-F) for 2 hours, with measurements taken every 2 minutes using 340nm and 650nm as excitation and emission wavelengths respectively. For lifetime analysis, two measurements per well were taken: 1) delay of 30μs, with a window of 30μs; and 2) delay of 70μs with a window of 30μs. Background TRF values were subtracted from all readings. A ratiometric analysis was performed to determine changes in the Lifetime fluorescence signal: Lifetime (μs)[T] = (D2-D1)/ln(W1/W2), where D is delay; W is fluorescence window value at each time point. Lifetime slopes were calculated using each Lifetime measurement over time. Data are presented as mean ± standard error (SE). The differences between the control (DMSO) and compound treated wells were analyzed using the Student’s t-test. A value of p≤0.05 was considered statistically significant. […]

[5] = tested on: Salmonella typhimurium (TA98, TA100, TA1535 and TA1537) and Escherichia coli (WP2 uvrA (pKM101)); assay: Ames assay, overall outcome and cytotoxicity across strains
[6] = tested on: p-AMPK Thr-172; assay: Western blot of p-AMPK Thr-172 in liver of HFD-fed mice; conditions: HFD-fed mice; 5 or 25mg/kg IP daily for 12 days
[7] = tested on: Salmonella typhimurium TA98; assay: Ames assay, strain TA98; conditions: for Mean Revertant Colony Counts TA98 SP9+: with S9
[8] = tested on: Salmonella typhimurium TA100; conditions: for Mean Revertant Colony Counts TA-100 SP9+: with S9
[9] = design: method as in PMID 26245118; conditions: cited from earlier work
[10] = tested on: fatty acid synthase (FAS); assay: Western blot of fatty acid synthase in liver of HFD-fed mice; conditions: HFD-fed mice; highest concentration (25mg/kg) IP daily for 12 days
[11] = tested on: PH5CH8 liver cells; assay: High-throughput hepatic de novo lipogenesis (DNL) assay, high content imaging of steatotic phenotype; assay type: cell-based, human
[12] = tested on: carbonic anhydrase-III (CAIII); conditions: HFD fed-DIO mice; cited from earlier work
[13] = tested on: C57-diet induced obesity (DIO) mouse; assay: Glucose tolerance test in DIO mice; assay type: in vivo; conditions: 5mg/kg for 7 days
Protocol: Animals were then treated with 5mg/kg niclosamide or vehicle for 7 days and GTT was performed again.
Glucose tolerance test in DIO mice. 2g/kg of glucose was injected IP and at 15, 30 and 60 min, blood glucose levels were measured.

[14] = cited from earlier work
[15] = tested on: Escherichia coli WP2 uvrA (pKM101); assay: Ames assay, strain WP2 uvrA (pKM101); conditions: for Mean Revertant Colony Counts WP2 uvrA (pKM101) SP9+: with S9; for Mean Revertant Colony Counts WP2 uvrA (pKM101) S9-: without S9
[16] = any concentration tested, vs negative control

Nc1ccc2cc3ccccc3cc2c1 [Compound 2-AA, 2-Aminoanthracene, reference compound]
Mean Revertant Colony Counts WP2 uvrA (pKM101) SP9+ [1]: 345.3
Mean Revertant Colony Counts TA-1537 SP9+ ([2]; Salmonella typhimurium): 11.0
Mean Revertant Colony Counts TA-1535 SP9+ ([3]; Salmonella typhimurium): 24.0

O=C(Nc1ccc([N+](=O)[O-])cc1Cl)c1cc(Cl)ccc1O [Niclosamide]
change in respiration / oxygen consumption rate (OCR) ([4]; compared to DMSO control, 2 hours): increased OCR
concentration dependence of OCR change ([4]; four concentrations): dose dependent increase in OCR
Ames assay outcome (mutagenicity) [5]: positive
concentration with significant cytotoxicity, strains TA98, TA100, TA1535 and TA1537 ([5]; in the absence of the S9 mix): ≥ 1.5 μg /well
concentration with significant cytotoxicity, strains TA98, TA100, TA1535 and TA1537 ([5]; in the presence of S9 mix): ≥ 10 μg /well
p-AMPK Thr-172 in liver [6]: significantly upregulated
Mean Revertant Colony Counts TA98 SP9+ ([7]; 1.5 ug/Well): 52.0
Mean Revertant Colony Counts TA98 S9- ([7]; 1.5 ug/Well, without S9): 1.5
Mean Revertant Colony Counts TA98 SP9+ ([7]; 4 ug/Well): 108.3
Mean Revertant Colony Counts TA98 SP9+ ([7]; 10 ug/Well): 194.7
fold increase in the mean number of revertant colonies, TA98 ([7]; 1.5, 4 and 10 μg/well in the presence of S9 mix): ≥ 2 fold
Mean Revertant Colony Counts TA-100 SP9+ ([8]; 1.5 ug/Well): 19.3
Mean Revertant Colony Counts TA-100 S9- ([8]; 1.5 ug/Well, without S9): 9.3
Mean Revertant Colony Counts TA-100 SP9+ ([8]; 4 ug/Well): 36.7
Mean Revertant Colony Counts TA-100 SP9+ ([8]; 10 ug/Well): 23.3
Mean Revertant Colony Counts TA-100 SP9+ ([8]; 25 ug/Well): 2.3
fold increase in the mean number of revertant colonies, TA100 [8, 16]: < 2 fold
Mean Revertant Colony Counts TA-1537 SP9+ ([2]; 1.5 ug/Well, with S9): 1.7
Mean Revertant Colony Counts TA-1537 SP9+ ([2]; 4 ug/Well, with S9): 2.0
Mean Revertant Colony Counts TA-1537 SP9+ ([2]; 10 ug/Well, with S9): 0.7
fold increase in the mean number of revertant colonies, TA1537 [2, 16]: < 3 fold
half-life [9]: 6.7 h
expression of fatty acid synthase (FAS) in liver [10]: significant reduction
IC50 ([11]; Homo sapiens, PH5CH8 liver cells, 10-point dose response between 1μM and 1.9nM, read-out: IC50 (uM), inhibition of steatotic phenotype in DNL assay): 0.02 µM
reduced steatosis (steatotic phenotype in DNL assay) ([11]; PH5CH8, assay validation): 77 ±12%
carbonic anhydrase-III (CAIII) hepatic protein [12]: down regulated
Mean Revertant Colony Counts TA-1535 SP9+ ([3]; 1.5 ug/Well, with S9): 3.3
Mean Revertant Colony Counts TA-1535 SP9+ ([3]; 4 ug/Well, with S9): 3.7
fold increase in the mean number of revertant colonies, TA1535 [3, 16]: < 3 fold
blood glucose levels at 60 minutes, glucose tolerance test ([13]; 2g/kg glucose IP): 250 mg/dL
plasma glucose levels after the 7-day treatment period ([13]; pre-treatment approximately 400mg/dL): ~275 mg/dL
peak plasma concentration (Cmax) ([14]; 5mg/kg oral dose in rats): 354 ng/mL
half-life ([14]; rat, in vivo, po, 5 mg/kg): 6.7 h
Mean Revertant Colony Counts WP2 uvrA (pKM101) SP9+ ([15]; 1.5 ug/Well): 36.7
Mean Revertant Colony Counts WP2 uvrA (pKM101) S9- ([15]; 1.5 ug/Well): 17.3
Mean Revertant Colony Counts WP2 uvrA (pKM101) SP9+ ([15]; 4 ug/Well): 44.0
Mean Revertant Colony Counts WP2 uvrA (pKM101) S9- ([15]; 4 ug/Well): 20.7
Mean Revertant Colony Counts WP2 uvrA (pKM101) SP9+ ([15]; 10 ug/Well): 34.0
Mean Revertant Colony Counts WP2 uvrA (pKM101) S9- ([15]; 10 ug/Well): 19.3
Mean Revertant Colony Counts WP2 uvrA (pKM101) SP9+ ([15]; 25 ug/Well): 31.7
Mean Revertant Colony Counts WP2 uvrA (pKM101) S9- ([15]; 25 ug/Well): 14.7
Mean Revertant Colony Counts WP2 uvrA (pKM101) SP9+ ([15]; 64 ug/Well): 27.0
Mean Revertant Colony Counts WP2 uvrA (pKM101) S9- ([15]; 64 ug/Well): 22.7
Mean Revertant Colony Counts WP2 uvrA (pKM101) SP9+ ([15]; 160 ug/Well): 24.7
Mean Revertant Colony Counts WP2 uvrA (pKM101) S9- ([15]; 160 ug/Well): 17.7
Mean Revertant Colony Counts WP2 uvrA (pKM101) SP9+ ([15]; 400 ug/Well): 14.7
Mean Revertant Colony Counts WP2 uvrA (pKM101) S9- ([15]; 400 ug/Well): 17.7
Mean Revertant Colony Counts WP2 uvrA (pKM101) SP9+ ([15]; 1000 ug/Well): 14.7
Mean Revertant Colony Counts WP2 uvrA (pKM101) S9- ([15]; 1000 ug/Well): 14.0
fold increase in the mean number of revertant colonies, WP2 uvrA (pKM101) [15, 16]: < 2 fold
concentration with significant cytotoxicity, WP2 uvrA (pKM101) ([15]; both in the presence and absence of S9 mix): ≥ 400 μg /well
